Data published in patent publication EP1090017B1, “NOVEL COMPOUNDS DERIVED FROM ALPHA-D-XYLOSE, PREPARATION METHOD AND THERAPEUTIC USE” (FOURNIER INDUSTRIE ET SANTE, priority 1998, dated 1999).

Assays:
cholestérol sérique = assay: Serum cholesterol (area under curve) measured periodically during the 14-week apoE-deficient mouse trial; type: in vivo, souris; conditions: for AUC (aire sous courbe du cholestérol): whole 14 weeks of the trial
Description: (§1) L'activité antiathéromateuse des composés selon l'invention a été mise en évidence sur des souris femelles, déficientes en apolipoprotéine E (homozygotes). Selon le protocole de ce test, le produit à évaluer est administré dans la nourriture (régime alimentaire standard) pendant 14 semaines. Après ce laps de temps, les souris sont euthanasiées et le coeur et la crosse aortique sont prélevés. Les surfaces lésées sont évaluées selon la méthode décrite dans Arteriosclerosis, 1990, 10, p. 316-323.
Durant les 14 semaines de l'essai décrit ci-dessus dans le but d'évaluer les propriétés antiathéromateuses des composés, on a mesuré périodiquement le taux de cholestérol sérique des souris traitées et des souris témoins, et le résultat est exprimé sous la forme aire sous courbe (AUC) du cholestérol pendant toute la durée de l'essai. Les résultats obtenus avec le composé de l'exemple 2 sont reportés dans le tableau II où AUC représente l'aire sous courbe (exprimée en g.jour.1^-1) et la variation (en pourcentage) est appréciée par rapport au groupe témoin. Tableau II

[1] = tested on: souris femelles, déficientes en apolipoprotéine E (homozygotes); assay: Antiatheromatous activity in apolipoprotein E-deficient mice: lesion surface after 14 weeks of compound in the food; type: in vivo; conditions: 300 mg/kg in the food, versus untreated control mice
Description: as §1
Le tableau I présente les résultats obtenus selon ce test pratiqué avec le composé de l'exemple 2 à différentes doses. Les résultats sont exprimés en pourcentage de réduction de la surface des plaques d'athérome, par rapport à un groupe de souris témoin non traitées. Tableau I

| SMILES | variation (%) de l'AUC du cholestérol (cholestérol sérique; 10 mg/kg, versus control group) [%] | AUC (aire sous courbe du cholestérol) (cholestérol sérique; 10 mg/kg) [g.jour.1^-1] | AUC (aire sous courbe du cholestérol) (cholestérol sérique; 100 mg/kg) [g.jour.1^-1] | AUC (aire sous courbe du cholestérol) (cholestérol sérique; 300 mg/kg) [g.jour.1^-1] | Réduction (%) de la surface des plaques d'athérome [1] [%] |
| --- | --- | --- | --- | --- | --- |
| N#Cc1ccc(C(=O)c2ccc(S[C@H]3SC[C@@H](O)[C@H](O)[C@H]3O)cc2)cc1 [Exemple 2, [4-(4-cyanobenzoyl)phényl] 1,5-dithio-α-D-xylopyranoside] | 0 | 585 ± 15 | 507 ± 16 | 505 ± 20 |  |
| N#Cc1ccc(C(=O)c2ccc(S[C@@H]3SC[C@@H](O)[C@H](O)[C@H]3O)cc2)cc1 [[4-(4-cyanobenzoyl)phényl] 1,5-dithio-β-D-xylopyranoside] |  |  |  |  | 30 |
